The values that follow come from US9695463B2, “DNA 5-methyl cytosine demethylation activity of vertebrate DNA methyltransferases” (Academia Sinica, priority 2012, dated 2017).

For one assay, the target named is T1, recombinant DNMT3B (Mus musculus, UniProt O88509).
T1 construct: purchased BPS Bioscience; host or cells: recombinant baculovirus-infected Sf9 insect cells
The experiment in a line: Effect of Ca2+ and DTT on the C to 5-mC methylation reaction of recombinant DNMT3B (hydrolysis-TLC assay). It is filed as biochemical. To be noted: 40 nM recombinant DNMT3B, unmethylated pMR1-8, 160 μM SAM, 1 mM CaCl2 or 5 mM DTT, 37°C, 4 h. As for the experimental part: (§1) FIGS. 3A-B show the effects of a reducing condition and SAM on the DNA demethylation and methylation activities of DNMT3B. […] After incubation at 37° C. for 4 h, the DNA products were analyzed by the hydrolysis-TLC assay. The results are quantitatively presented in the histogram. […] After incubation at 37° C. for 4 h, the extents of C methylation of the DNAs from the different reactions were determined by hydrolysis-TLC assay and quantitatively compared in the histogram. Error bars indicate S.D.
Methylation in vitro of unmodified pMR1-8 plasmid DNA by the DNMTs were carried out and analyzed by the hydrolysis-TLC assay. When needed, 1 mM CaCl2 or 5 mM DTT was also included in the reaction mixture.

Assay [1] has as its system DNA demethylation activity of porcine sperm nuclear extract. Nature of the assay: In vitro DNA demethylation by porcine sperm nuclear extract (restriction digestion-PCR assay). It is filed as biochemical. To be noted: for effect on the in vitro DNA demethylation activity of the sperm nuclear extract: 10 mM CaCl2, increasing concentrations of inhibitor (APE-i to 1 mM, 3-AB to 50 mM, THU to 1 mM). On the procedure: The nuclear extracts were prepared from the porcine sperms and 293T cells, respectively, by a modified method. Briefly, the porcine semen was washed three times by PBS buffer and the sperm pellet isolated with FICOLL®. The pellet was resuspended in a hypotonic buffer (10 mM Tris-HCl, pH7.4, 10 mM NaCl, 10 mM EDTA and EDTA-free protease inhibitors) on ice for 15 minutes. The resuspended sperms were passed through a G21 needle 10 times and then centrifuged at 13,200 rpm at 4° C. for 10 min. The supernatant was removed and the pellet of the nuclei was resuspended in a resuspension buffer (10 mM Tris-HCl, pH7.4, 10 mM NaCl, 1.5 mM, MgCl2 and EDTA-free protease inhibitors), and an equal volume of 1M NaCl was added for 30 min incubation on ice.

For another assay, the target named is T2, recombinant mouse DNMT3B (Mus musculus, UniProt O88509).
T2 construct: purchased BPS Bioscience; host or cells: recombinant baculovirus-infected Sf9 insect cells
The experiment in a line: Effect of Ca2+, DTT, SAM and H2O2 on the DNA demethylation activity of recombinant DNMT3B (hydrolysis-TLC assay). Type of assay: biochemical. As for the experimental part:
M, mock control without incubation.
as §1
Rx, reactions. […] M, mock control without incubation.

Assay [2] has as its system 5-mC-containing double-stranded DNA substrate. Nature of the assay: 5-mC to C conversion by 293T nuclear extracts with exogenously expressed mouse DNMTs (hydrolysis-TLC assay). To be noted: 293T nuclear extract with exogenously expressed mouse enzyme, buffer B, 10 mM Ca2+. Type of assay: biochemical.
Assay [3] concerns 5-mC-containing DNA substrate. The experiment in a line: 5-mC to C conversion by recombinant DNMTs (hydrolysis-TLC assay). To be noted: 40 nM recombinant DNMT3B, 1 mM CaCl2, 37°C, 2 h (reaction 1).

Regarding `O[C@H](CS)[C@H](O)CS` (racemic) [DTT, dithiothreitol], on recombinant DNMT3B, the “effect on the 5-C methylation reaction of DNMTs (in words)” value is reported as “nor was it affected”.

For `NC(=O)c1cccc(N)c1` [3-aminobenzamide], in assay [1], the “effect on the in vitro DNA demethylation activity of the sperm nuclear extract” value (from here on “effect … of the sperm nuclear extract”) was “little effect”.

For the molecule `O=C(O)c1cc2cccc([N+](=O)[O-])c2[nH]1` [CRT0044876], the “effect … of the sperm nuclear extract” value in assay [1] was “little effect”.

Turning to `[Ca+2].[Cl-].[Cl-]` [Ca^2+, CaCl2], the “effect on the 5-C methylation reaction of DNMTs (in words)” value on recombinant DNMT3B was “did not require”. The “reduction of the extent of DNA methylation” value in assay [1] (1-10 mM Ca2+, fully methylated pMR1-8 plasmid, 37°C, 2 h) was 20-50%.

On to `OO` [H2O2], for which the “effect on the enzyme activity of DNMT3B after SAM (in words)” value at recombinant mouse DNMT3B (1 mM H2O2 added after reaction 2, another 2 h (reaction 3)) is listed as “led to the switch of the enzyme activity of DNMT3B from methylation to demethylation again”.

In the case of `C[S+](CC[C@H](N)C(=O)O)C[C@H]1O[C@@H](n2cnc3c(N)ncnc32)[C@H](O)[C@@H]1O` (some centres unmarked) [SAM, S-adenosylmethionine], the “C converted back to 5-mC” value at recombinant mouse DNMT3B (160 μM SAM added after reaction 1, continued 1 h incubation (reaction 2)) is “more than 60%”.

As for `O=C1NC(O)CCN1[C@@H]1O[C@H](CO)[C@@H](O)[C@H]1O` (some centres unmarked) [tetrahydrouridine], in assay [1], the “effect … of the sperm nuclear extract” value was “little effect”.

Take “DNMT1: mouse DNA methyltransferase 1 exogenously expressed in 293T nuclear extract (SEQ ID NO: 5)”: in assay [2], the “5-mC residues on the DNA substrate from which the 5-methyl group was removed” value is recorded as “approximately 30%”.

Take “DNMT3B: mouse DNA methyltransferase 3B, expressed in 293T nuclear extract or recombinant from BPS Bioscience (SEQ ID NO: 9)”: the “5-mC residues on the DNA substrate from which the 5-methyl group was removed” value in assay [2] is “approximately 30%”. For the same molecule, the “5-mC on the DNA substrate demethylated at the end of the first reaction” value in assay [3] was “approximately 60%”.
